Patent publication US4124710A, “Acetamidoxime derivatives and use thereof” (priority 1976, dated 1978)
Counter-ions that a name gives are not always drawn.

Columns and labels:
[1] = test system: male rats in which chronic renal hypertension had been induced; experiment: Fall in arterial pressure in rats rendered hypertensive by the GROLLMAN method (chronic renal hypertension); format: in vivo, rat; conditions: intragastric; for Fall in A.P.: 25 mg/kg, measured before and 1-6 hours after administration
Protocol: The first test was carried out on male rats weighing about 120g in which chronic renal hypertension had been induced by the Grollman technique [Proc. Soc. exp.
According to this technique, the animals are anaesthetized with ether and one kidney is displaced from its site without being detached from the body, the suprarenal gland having been first liberated from the kidney but otherwise left intact. The kidney is then bound with twine in the form of a figure eight, just tightly enough to alter slightly the ellipsoid shape of the organ. Ten days later, the other kidney is completely removed together with its suprarenal gland.
Arterial pressure was measured immediately before and 1,2,3,4,5 and 6 hours after administration.

[2] = test system: experimentally induced hypertension; conditions: rat, in vivo; cited from earlier work
[3] = test system: male albino rats; experiment: Volumetric urinary excretion (technique of LIPSCHITZ et al.); format: in vivo, rat; conditions: intragastric, 6 hours, % of volume of saline administered
Protocol: 1 -- Volumetric urinary excretion
This test was performed according to the technique of LIPSCHITZ et al. (J. Pharmacol. exp. Therap. 79, 97, 1943), by using groups of 20 male albino rats weighing from 150 to 200g which had been deprived of food and drink for 18 hours.
The substance to be tested was given by intragastric route immediately after the intragastric administration of 50 ml/kg of a 9°/°° solution of NaCl.
A control group also of 20 rats only received the saline solution. The total amount of urine excreted during the 6 hours following administration was collected and measured.

[4] = test system: nictitating membrane of an anaesthetized cat; experiment: Ganglioplegic activity: contractions of the nictitating membrane of anaesthetized cat; format: in vivo; conditions: two intravenous doses of 5 mg/kg
Protocol: (1) The arterial pressure and the tonus of the nictitating membrane of an anaesthetized cat was first noted, after which the contractile reaction of the membrane to an intravenous injection of adrenaline and to electric stimulation of the preganglionic fibre of the cervical sympathetic nerve was tested.

[5] = test system: Mouse; experiment: Acute toxicity in mice; format: in vivo; conditions: 12 days observation
Protocol: (§1) Finally, acute toxicity trials were carried out on rats and mice which were kept under observation for 12 days following one single administration.

[6] = test system: hypertensive effect of acetylcholine in dog; experiment: Ganglioplegic activity: hypertensive effect of acetylcholine in anaesthetized atropinized dog
[7] = test system: experimentally induced hypertension; experiment: Experimentally induced hypertension, general statements on anti-hypertensive activity; conditions: rat, in vivo
Protocol: (§2) All of these tests were performeed on rats which were in a state of hypertension. Each test was divided into two series. In the first series, one single dose of the product under study was administered by intragastric route to each animal and the arterial pressure of the latter was measured every hour for six hours after administration. In the second series the product under study was given by the same route every day for eleven consecutive days and arterial pressure was measured daily throughout this period. The amount of product administered varied from one animal to another.

[8] = test system: albino male rats; experiment: Ionic ratio in urinary excretion (technique of AMBROSILI et al.); format: in vivo, rat; conditions: for Na^+ /K^+ Ratio / K^+ excretion / Na^+ excretion / Urinary excretion: intragastric, 4 hours; for Na^+ /K^+ Ratio: control 1; for K^+ excretion: control 18.5; for Na^+ excretion: control 27.3; for Urinary excretion: control 40
Protocol: 2 -- Ionic ratio in urinary excretion
This test was performed according to the technique of AMBROSILI et al. (Minerva Nepol. 11,56, 1964).
The substance to be tested was given by intragastric route immediately after the intragastric administration of 50 ml/kg of distilled water to groups of 20 albino male rats weighing 140 { 10g which had been fasting for 18 hours.
A control group, also comprising 20 animals, only received the distilled water.
The total amount of urine excreted during the 4 hours following administration was collected and measured and the total Na^+ and K^+ ion excretion values determined.
These values were then converted to millieequivalents per liter (mEq/l.) in order to obtain the correct Na^+ and K^+ ion excretion figures independently of the increase in the amount of urine.
The ionic ratio was obtained according to the following formula: [formula]

[9] = test system: rats with hypertension of endocrine origin; experiment: Hypertension of endocrine origin (DOCA; technique of STANTON and WHITE); format: in vivo, rat; conditions: intragastric
Protocol: as §2
(2) Hypertension of endocrine origin
This test was performed in accordance with the technique of STANTON and WHITE (Arch. Int. Pharmacodyn. 154, 351, 1965).
Female rats weighing 90 ± 10g were anaesthetized with ether and hypertension was produced by ablation of one kidney and the corresponding adrenal gland, after which a dose of 50 mg/kg of desoxycorticosterone acetate (DOCA) was administered subcutaneously five days a week over a period of four weeks. Throughout this period the drinking-water given to the rats contained 1% of NaCl. This was replaced by ordinary tap-water when administration of the desoxycorticosterone ceased.
Under these circumstances, arterial pressure rose to about 200 mm.Hg.

[10] = test system: Rat; experiment: Acute toxicity in rats; format: in vivo; conditions: 12 days observation
Protocol: as §1

[11] = test system: rats with genetic hypertension; experiment: Genetic hypertension (technique of OKAMOTO and AOKI); format: in vivo, rat; conditions: for Maximum fall in A.P.: intragastric
Protocol: as §2
This test was performed in accordance with the technique of OKAMOTO and AOKI (Jap. Circul. J., 27, 282, 1963), using male rats belonging to a race which has been specially bred to produce animals having high blood pressure.

[12] = test system: rats with neurogenic hypertension; experiment: Neurogenic hypertension (technique of KRIEGER and IMBS); format: in vivo, rat; conditions: intragastric
Protocol: as §2
(4) Neurogenic hypertension
This test was performed in accordance with the technique of KRIEGER and IMBS (Circul. Res. 15, 511, 1964 and C.R. Soc. Biol. 162, 778, 1968).
Male rats weighing from 200 to 250g were anaesthetized with ether and 0.5mg of atropine sulphate was administered to them intraperitoneally.
The rats were fixed in a supine position and an incision was made in the front of the neck to expose the neuromuscular bundle comprising the sumpathetic and vagus nerve and the common carotid arteries.
The vagus nerves and the carotid arteries were then carefully isolated while one centimeter was cut out of the sympathetic nerves. […] The area in which the carotids divide was exposed by pulling aside the appropriate neck muscles (sternocleidomastoideus and omohyoideus). The vessels thus liberated were painted with 10% phenol in ethanol. In this way, complete sympathetic denervation was obtained.
A marked rise in arterial pressure was obtained after 5 to 8 days.

[13] = test system: rats with saline hypertension; experiment: Saline hypertension (technique of DAHL, KNUDSEN, HEINE and LEITL); format: in vivo, rat; conditions: intragastric
Protocol: as §2
This test was performed in accordance with the technique of DAHL, KNUDSEN, HEINE and LEITL.
Male rats weighing 55 ± 5g were fed on food containing 8% of NaCl but which was otherwise normal.
After six weeks of this diet, arterial pressure had risen to about 180 mm.Hg.

## CCCCN(CCCC)CCNC(Cc1c(CC)oc2ccccc12)=NO [2-(2-Ethyl-3-benzofuranyl)-N-(2-di-n-butylamine-ethyl)-acetamidoxime]
[1]
  Fall in A.P.: 27 mm.Hg

## CCc1oc2ccc(Cl)cc2c1CC(=NO)NCCN1CCOCC1 [2-(2-Ethyl-5-chloro-3-benzofuranyl)-N-(2-morpholino-ethyl)-acetamidoxime]
[1]
  Fall in A.P.: 21 mm.Hg

## Cc1oc2ccccc2c1CC(=NO)NCCN1CCOCC1 [2-(2-Methyl-3-benzofuranyl)-N-(2-morpholino-ethyl)-acetamidoxime]
[1]
  Fall in A.P.: 25 mm.Hg

## CCCN1CCN(C(=N)Cc2c(CC)oc3ccccc23)CC1 [2-(2-ethyl-3-benzofuranyl)-N,N-(3-n-propyl-3-aza-pentamethylene)-acetamidine dihydrochloride, reference compound]
[1]; 50 mg/kg
  fall in arterial pressure: 14 mm.Hg
[1]; 200 mg/kg
  fall in arterial pressure: 24 mm.Hg
[2]
  activity in the treatment of experimentally induced hypertension: pharmacologically active

## CCc1oc2ccccc2c1CC(=NO)NCCN1CCOCC1 [L 9552, 2-(2-ethyl-3-benzofuranyl)-N-(2-morpholino-ethyl)-acetamidoxime]
[3]; 10 mg/kg
  Urinary excretion: 84%
[3]; 20 mg/kg
  Urinary excretion: 102%
[3]; 50 mg/kg
  Urinary excretion: 118%
[3]; 100 mg/kg
  Urinary excretion: 138%
[3]; 200 mg/kg
  Urinary excretion: 165%
[1]
  Fall in A.P.: 36 mm.Hg
[1]; daily doses (11 days) 10 mg/kg
  Maximum fall in A.P.: 18 mm.Hg
[1]; daily doses (11 days) 25 mg/kg
  Maximum fall in A.P.: 32 mm.Hg
[1]; daily doses (11 days) 50 mg/kg
  Maximum fall in A.P.: 47 mm.Hg
[1]; single dose 10 mg/kg
  Maximum fall in A.P.: 14 mm.Hg
[1]; single dose 25 mg/kg
  Maximum fall in A.P.: 36 mm.Hg
[1]; single dose 50 mg/kg
  Maximum fall in A.P.: 55 mm.Hg
[4]
  effect on intensity of contractions of the nictitating membrane (adrenaline, electric stimulation): did not modify the intensity of the contractions of the membrane
[5]; intragastric
  LD0: 250 mg/kg
  LD95: 1,250 mg/kg
[5]; intraperitoneal
  LD0: 30 mg/kg
  LD95: 110 mg/kg
[6]; 5 mg/kg intravenous, 1 mg/kg acetylcholine
  effect on the hypertensive effect of acetylcholine: did not alter the hypertensive effect
[7]
  activity in the five types of experimentally induced hypertension: active
[8]; 10 mg/kg
  Na^+ /K^+ Ratio: 1.09
  K^+ excretion: 15.3 mEq/l.
  Na^+ excretion: 24.8 mEq/l.
  Urinary excretion: 55%
[8]; 20 mg/kg
  Na^+ /K^+ Ratio: 1.66
  K^+ excretion: 17.5 mEq/l.
  Na^+ excretion: 43.0 mEq/l.
  Urinary excretion: 80%
[8]; 50 mg/kg
  Na^+ /K^+ Ratio: 2.50
  K^+ excretion: 15.0 mEq/l.
  Na^+ excretion: 55.6 mEq/l.
  Urinary excretion: 95%
[8]; 100 mg/kg
  Na^+ /K^+ Ratio: 3.37
  K^+ excretion: 14.3 mEq/l.
  Na^+ excretion: 71.3 mEq/l.
  Urinary excretion: 137%
[8]; 200 mg/kg
  Na^+ /K^+ Ratio: 3.34
  K^+ excretion: 15.8 mEq/l.
  Na^+ excretion: 78.0 mEq/l.
  Urinary excretion: 124%
[8]; rat, in vivo
  sodium-excretion index: very favourable
[9]; daily doses (11 days) 25 mg/kg
  Maximum fall in A.P.: 15 mm.Hg
[9]; daily doses (11 days) 50 mg/kg
  Maximum fall in A.P.: 30 mm.Hg
[9]; daily doses (11 days) 100 mg/kg
  Maximum fall in A.P.: 49 mm.Hg
[9]; single dose 25 mg/kg
  Maximum fall in A.P.: 18 mm.Hg
[9]; single dose 50 mg/kg
  Maximum fall in A.P.: 26 mm.Hg
[9]; single dose 100 mg/kg
  Maximum fall in A.P.: 45 mm.Hg
[10]; intragastric
  LD0: 1,100 mg/kg
  LD95: 2,500 mg/kg
[10]; intraperitoneal
  LD0: 80 mg/kg
  LD95: 350 mg/kg
[11]; daily doses (11 days) 5 mg/kg
  Maximum fall in A.P.: 0 mm.Hg
[11]; daily doses (11 days) 10 mg/kg
  Maximum fall in A.P.: 26 mm.Hg
[11]; daily doses (11 days) 20 mg/kg
  Maximum fall in A.P.: 47 mm.Hg
[11]; rat, in vivo
  activity in genetic hypertension: especially active
[11]; single dose 5 mg/kg
  Maximum fall in A.P.: 16 mm.Hg
[11]; single dose 10 mg/kg
  Maximum fall in A.P.: 35 mm.Hg
[11]; single dose 20 mg/kg
  Maximum fall in A.P.: 52 mm.Hg
[12]; daily doses (11 days) 10 mg/kg
  Maximum fall in A.P.: 17 mm.Hg
[12]; daily doses (11 days) 25 mg/kg
  Maximum fall in A.P.: 35 mm.Hg
[12]; single dose 10 mg/kg
  Maximum fall in A.P.: 18 mm.Hg
[12]; single dose 25 mg/kg
  Maximum fall in A.P.: 37 mm.Hg
[12]; single dose 50 mg/kg
  Maximum fall in A.P.: 56 mm.Hg
[13]; daily doses (11 days) 10 mg/kg
  Maximum fall in A.P.: 13 mm.Hg
[13]; daily doses (11 days) 25 mg/kg
  Maximum fall in A.P.: 26 mm.Hg
[13]; daily doses (11 days) 50 mg/kg
  Maximum fall in A.P.: 53 mm.Hg
[13]; single dose 10 mg/kg
  Maximum fall in A.P.: 14 mm.Hg
[13]; single dose 25 mg/kg
  Maximum fall in A.P.: 27 mm.Hg
[13]; single dose 50 mg/kg
  Maximum fall in A.P.: 54 mm.Hg

## NS(=O)(=O)c1cc2c(cc1Cl)NCNS2(=O)=O [hydrochlorothiazide, reference compound]
[1]; 200 mg/kg
  activity in this test: inactive

## C[N+]1(CC(=O)c2ccc(-c3ccccc3)cc2)[C@@H]2CC[C@H]1C[C@@H](OC(=O)[C@H](CO)c1ccccc1)C2 (stereo partly shown) [phenthonium, reference compound]
[6]; dose not stated, ganglioplegic substance
  effect on the hypertensive effect of acetylcholine: annulled the hypertensive effect of acetylcholine
